Patent publication US9120791B2, “Indolizine compounds, a process for their preparation and pharmaceutical compositions containing them” (LES LABORATOIRES SERVIER, priority 2012, dated 2015)
Counter-ions that a name gives are not always drawn. Like-named read-outs stand apart in the source and are kept apart here.

How the values were obtained:
[1] = target: Bcl-2 protein (Homo sapiens (Human), UniProt P10415); experiment: Inhibition of Bcl-2 by the fluorescence polarisation technique; assay type: binding; details: fluorescence polarisation test; concentration that inhibits fluorescence polarisation by 50%; read-out: IC50 (nM) Bcl-2 FP
Protocol: The fluorescence polarisation tests were carried out on microplates (384 wells). […] After incubation for 2 hours, the fluorescence polarisation is measured.

[2] = tested on: RS4;11 leukaemia tumour line; experiment: In vitro cytotoxicity (Microculture Tetrazolium Assay, 48 hours); assay type: cell-based; details: RS4;11 cells, 48 hours exposure, MTT, concentration that inhibits cell viability by 50%, read-out: IC50 (nM) MTT RS4
Protocol: The cytotoxicity studies were carried out on the RS4;11 leukaemia tumour line.
The cells are distributed onto microplates and exposed to the test compounds for 48 hours.

Chain of Bcl-2 protein (P10415 whole entry): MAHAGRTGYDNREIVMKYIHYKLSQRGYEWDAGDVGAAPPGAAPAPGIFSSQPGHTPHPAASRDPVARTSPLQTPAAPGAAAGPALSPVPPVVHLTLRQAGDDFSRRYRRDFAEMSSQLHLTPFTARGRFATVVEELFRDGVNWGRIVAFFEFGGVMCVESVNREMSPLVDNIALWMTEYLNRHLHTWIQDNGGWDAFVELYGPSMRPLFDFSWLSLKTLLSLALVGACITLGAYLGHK

Compound	IC50 [1]	IC50 ([2]; Homo sapiens)	IC50 [2]
Cn1ccc2cc(N(C(=O)c3cc(-c4cc(Cl)ccc4C(=O)N4Cc5ccccc5C[C@H]4CN4CCOCC4)n4c3COCC4)c3ccc(O)cc3)ccc21 [Example 86, 6-{5-Chloro-2-[((3S)-3-(4-morpholinylmethyl)-3,4-dihydro-2(1H)-isoquinolinyl)carbonyl]phenyl}-N-(4-hydroxyphenyl)-N-(1-methyl-1H-indol-5-yl)-3,4-dihydro-1H-pyrrolo[2,1-c][1,4]oxazine-8-carboxamide hydrochloride]	22 nM	29.5 nM	
Cn1ccc2cc(N(C(=O)c3cc(-c4cc5c(cc4C(=O)N4Cc6ccccc6C[C@H]4CN4CCOCC4)OCCO5)n4ccccc34)c3ccc(O)cc3)ccc21 [Example 70, N-(4-Hydroxyphenyl)-N-(1-methyl-1H-indol-5-yl)-3-{7-[((3S)-3-(4-morpholinylmethyl)-3,4-dihydro-2(1H)-isoquinolinyl)carbonyl]-2,3-dihydro-1,4-benzodioxin-6-yl}-1-indolizine carboxamide hydrochloride]	19 nM	14 nM	
Cn1ccc2cc(N(C(=O)c3cc(-c4cc5c(cc4C(=O)N4Cc6ccccc6C[C@H]4CN4CCOCC4)OCCO5)n4c3CCCC4)c3ccc(O)cc3)ccc21 [Example 35, N-(4-Hydroxyphenyl)-N-(1-methyl-1H-indol-5-yl)-3-{7-[((3S)-3-(4-morpholinylmethyl)-3,4-dihydro-2(1H)-isoquinolinyl)carbonyl]-2,3-dihydro-1,4-benzodioxin-6-yl}-5,6,7,8-tetrahydro-1-indolizine carboxamide]	15 nM	11.7 nM	
Tert-butyl 8-{[4-hydroxy(1-methyl-1H-indol-5-yl)anilino]carbonyl}-6-{6-[((3S)-3-(4-morpholinylmethyl)-3,4-dihydro-2(1H)-isoquinolinyl)carbonyl]-1,3-benzodioxol-5-yl}-3,4-dihydropyrrolo[1,2-a]pyrazine-2(1H)-carboxylate [Example 72]	220 nM		270 nM
COc1ccc(C(=O)N2Cc3ccccc3C[C@H]2CN2CCOCC2)c(-c2cc(C(=O)N(c3ccccc3)c3ccc(O)cc3)c3n2CCCC3)c1 [Example 112, N-(4-Hydroxyphenyl)-3-(5-methoxy-2-{[(3S)-3-(morpholin-4-ylmethyl)-3,4-dihydroisoquinolin-2(1H)-yl]carbonyl}phenyl)-N-phenyl-5,6,7,8-tetrahydroindolizine-1-carboxamide hydrochloride]	9 nM	139 nM	
O=C(c1cc(-c2cc3c(cc2C(=O)N2Cc4ccccc4C[C@H]2CN2CCOCC2)OCO3)n2c1CCCC2)N(c1ccc(O)cc1)c1ccc(OC(F)(F)F)cc1 [Example 5, N-(4-Hydroxyphenyl)-3-{6-[((3S)-3-(4-morpholinylmethyl)-3,4-dihydro-2(1H)-isoquinolinyl)carbonyl]-1,3-benzodioxol-5-yl}-N-[4-(trifluoromethoxy)phenyl]-5,6,7,8-tetrahydro-1-indolizine carboxamide hydrochloride]	51 nM	98 nM	
CC(C)n1ccc2cc(N(C(=O)c3cc(-c4cc5c(cc4C(=O)N4Cc6ccccc6C[C@H]4CN4CCOCC4)OCO5)n4ccccc34)c3ccc(O)cc3)ccc21 [Example 62, N-(4-Hydroxyphenyl)-N-(1-isopropyl-1H-indol-5-yl)-3-{6-[((3S)-3-(4-morpholinylmethyl)-3,4-dihydro-2(1H)-isoquinolinyl)carbonyl]-1,3-benzodioxol-5-yl}-1-indolizine carboxamide hydrochloride]	22 nM	19.3 nM	
O=C(c1cc(-c2cc(Cl)ccc2C(=O)N2Cc3ccccc3C[C@H]2CN2CCOCC2)n2c1CCCC2)N(c1ccc(O)cc1)c1cccc(F)c1 [Example 116, 3-(5-Chloro-2-{[(3S)-3-(morpholin-4-ylmethyl)-3,4-dihydroisoquinolin-2(1H)-yl]carbonyl}phenyl)-N-(3-fluorophenyl)-N-(4-hydroxyphenyl)-5,6,7,8-tetrahydroindolizine-1-carboxamide hydrochloride]	10 nM	43.6 nM	
Cn1ccc2cc(N(C(=O)c3cc(-c4cc5c(cc4C(=O)N4Cc6ccccc6C[C@H]4CN4CCOCC4)OCO5)n4c3CCC4)c3ccc(O)cc3)ccc21 [Example 96, N-(4-Hydroxyphenyl)-N-(1-methyl-1H-indol-5-yl)-5-(6-{[(3S)-3-(morpholin-4-ylmethyl)-3,4-dihydroisoquinolin-2(1H)-yl]carbonyl}-1,3-benzodioxol-5-yl)-2,3-dihydro-1H-pyrrolizine-7-carboxamide hydrochloride]	11 nM	58.8 nM	

The next lines start with results.

IC50 [1]	Compound	IC50 ([2]; Homo sapiens)	IC50 [2]
15 nM	O=C(c1cc(-c2cc(Cl)ccc2C(=O)N2Cc3ccccc3C[C@H]2CN2CCOCC2)n2c1CCCC2)N(c1ccc(O)cc1)c1ccc(F)cc1 [Example 111, 3-(5-Chloro-2-{[(3S)-3-(morpholin-4-ylmethyl)-3,4-dihydroisoquinolin-2(1H)-yl]carbonyl}phenyl)-N-(4-fluorophenyl)-N-(4-hydroxyphenyl)-5,6,7,8-tetrahydroindolizine-1-carboxamide hydrochloride]	81.5 nM	
45 nM	CN1CC(C)(C)c2cc(N(C(=O)c3cc(-c4cc(Cl)ccc4C(=O)N4Cc5ccccc5C[C@H]4CN4CCOCC4)n4c3CCCC4)c3ccc(O)cc3)ccc21 [Example 49, 3-{5-Chloro-2-[((3S)-3-(4-morpholinylmethyl)-3,4-dihydro-2(1H)-isoquinolinyl)carbonyl]phenyl}-N-(4-hydroxyphenyl)-N-(1,3,3-trimethyl-2,3-dihydro-1H-indol-5-yl)-5,6,7,8-tetrahydro-1-indolizine carboxamide]	169 nM	
33 nM	O=C(c1cc(-c2cc3c(cc2C(=O)N2Cc4ccccc4C[C@H]2CN2CCOCC2)OCCCO3)n2c1CCCC2)N(c1ccccc1)c1ccc(O)cc1 [Example 31, N-(4-Hydroxyphenyl)-3-{8-[((3S)-3-(4-morpholinylmethyl)-3,4-dihydro-2(1H)-isoquinolinyl)carbonyl]-3,4-dihydro-2H-1,5-benzodioxepin-7-yl}-N-phenyl-5,6,7,8-tetrahydro-1-indolizine carboxamide hydrochloride]	340 nM	
26 nM	CN1CCCc2cc(N(C(=O)c3cc(-c4cc5c(cc4C(=O)N4Cc6ccccc6C[C@H]4CN4CCOCC4)OCCO5)n4ccccc34)c3ccc(O)cc3)ccc21 [Example 69, N-(4-Hydroxyphenyl)-N-(1-methyl-1,2,3,4-tetrahydro-6-quinolinyl)-3-{7-[((3S)-3-(4-morpholinylmethyl)-3,4-dihydro-2(1H)-isoquinolinyl)carbonyl]-2,3-dihydro-1,4-benzodioxin-6-yl}-1-indolizine carboxamide hydrochloride]	16.7 nM	
27 nM	CN1CCc2cc(N(C(=O)c3cc(-c4cc(Br)ccc4C(=O)N4Cc5ccccc5C[C@H]4CN4CCOCC4)n4c3CCCC4)c3ccc(O)cc3)ccc21 [Example 19, 3-{5-Bromo-2-[((3S)-3-(4-morpholinylmethyl)-3,4-dihydro-2(1H)-isoquinolinyl)carbonyl]phenyl}-N-(4-hydroxyphenyl)-N-(1-methyl-2,3-dihydro-1H-indol-5-yl)-5,6,7,8-tetrahydro-1-indolizine carboxamide hydrochloride]	42.3 nM	
24 nM	Cn1ccc2cc(N(C(=O)c3cc(-c4cc5c(cc4C(=O)N4Cc6ccccc6C[C@H]4CN4CCOCC4)OCO5)n4c3CNCC4)c3ccc(O)cc3)ccc21 [Example 74, N-(4-Hydroxyphenyl)-N-(1-methyl-1H-indol-5-yl)-6-{6-[((3S)-3-(4-morpholinylmethyl)-3,4-dihydro-2(1H)-isoquinolinyl)carbonyl]-1,3-benzodioxol-5-yl}-1,2,3,4-tetrahydropyrrolo[1,2-a]pyrazine-8-carboxamide bis(hydrochloride)]	241 nM	
34 nM	Cn1ccc2cc(N(C(=O)c3cc(-c4cc5c(cc4C(=O)N4Cc6ccccc6C[C@H]4CN4CCOCC4)OCCCO5)n4c3CCCC4)c3ccc(O)cc3)ccc21 [Example 32, N-(4-Hydroxyphenyl)-N-(1-methyl-1H-indol-5-yl)-3-{8-[((3S)-3-(4-morpholinylmethyl)-3,4-dihydro-2(1H)-isoquinolinyl)carbonyl]-3,4-dihydro-2H-1,5-benzodioxepin-7-yl}-5,6,7,8-tetrahydro-1-indolizine carboxamide hydrochloride]	71.3 nM	
21 nM	Cn1ccc2cc(N(C(=O)c3cc(-c4cc(Cl)ccc4C(=O)N4Cc5ccccc5C[C@H]4CN4CCCOCC4)n4c3CCCC4)c3ccc(O)cc3)ccc21 [Example 46, 3-{5-Chloro-2-[((3S)-3-(1,4-oxazepan-4-ylmethyl)-3,4-dihydro-2(1H)-isoquinolinyl)carbonyl]phenyl}-N-(4-hydroxyphenyl)-N-(1-methyl-1H-indol-5-yl)-5,6,7,8-tetrahydro-1-indolizine carboxamide hydrochloride]	56.8 nM	
29 nM	O=C(c1cc(-c2cc(F)ccc2C(=O)N2Cc3ccccc3C[C@H]2CN2CCOCC2)n2c1CCCC2)N(c1ccccc1)c1ccc(O)cc1 [Example 25, 3-{5-Fluoro-2-[((3S)-3-(4-morpholinylmethyl)-3,4-dihydro-2(1H)-isoquinolinyl)carbonyl]phenyl}-N-(4-hydroxyphenyl)-N-phenyl-5,6,7,8-tetrahydro-1-indolizine carboxamide hydrochloride]	143 nM	
22 nM	CS(=O)(=O)N1CCN(C[C@@H]2Cc3ccccc3CN2C(=O)c2cc3c(cc2-c2cc(C(=O)N(c4ccccc4)c4ccc(O)cc4)c4n2CCCC4)OCO3)CC1 [Example 123, N-(4-Hydroxyphenyl)-3-(6-{[(3S)-3-{[4-(methylsulphonyl)piperazin-1-yl]methyl}-3,4-dihydroisoquinolin-2(1H)-yl]carbonyl}-1,3-benzodioxol-5-yl)-N-phenyl-5,6,7,8-tetrahydroindolizine-1-carboxamide hydrochloride]	92.1 nM	
